The assay relates to CD2F1 mice, ip Colon 26 adenocarcinoma, median survival T/C. Briefly: NCI In Vivo Anticancer Drug Screen. Data for tumor model Colon 26 Adenocarcinoma (intraperitoneal) in CD2F1 (CDF1) mice. Particulars: endpoint: median survival time, higher = longer survival. Here is the method: The antitumor activity of compounds was measured in mice bearing transplantable tumors. Survival or tumor size were measured and the results are expressed as the measurement made in the treated group (T) divided by the measurement made in the vehicle treated control group (C). The tumor model used in this assay is Colon 26 Adenocarcinoma (intraperitoneal) in CD2F1 (CDF1) mice

Toxic doses and inconclusive results are not listed.

`CCC1CN2C(=N1)c1ccccc1-c1cc(Cl)ccc12` (configuration not stated): the T/C reads like this: (dose: 2.5 mg/kg/injection, schedule: Q04DX003 (ip), vehicle: saline) 102 % of control; (dose: 2.5 mg/kg/injection, schedule: Q04DX003 (ip), vehicle: suspension in saline) 107 % of control; (dose: 5.0 mg/kg/injection, schedule: Q04DX003 (ip), vehicle: saline) 111 % of control; (dose: 5.0 mg/kg/injection, schedule: Q04DX003 (ip), vehicle: suspension in saline) 101 % of control; (dose: 10.0 mg/kg/injection, schedule: Q04DX003 (ip), vehicle: saline) 92 % of control; (dose: 10.0 mg/kg/injection, schedule: Q04DX003 (ip), vehicle: suspension in saline) 106 % of control. For the same molecule, the T/C (dose: 40.0 mg/kg/injection, schedule: Q04DX003 (ip), vehicle: saline) is 121 % of control and the T/C (dose: 40.0 mg/kg/injection, schedule: Q04DX003 (ip), vehicle: suspension in saline) is 124 % of control.

As for `CN(C)CCCNc1cccc2c1C(=O)c1c(NCCCN(C)C)cccc1C2=O`, the T/C was 111 % of control (dose: 4.0 mg/kg/injection, schedule: Q01DX009 (ip), vehicle: saline); 97 % of control (dose: 8.0 mg/kg/injection, schedule: Q01DX009 (ip), vehicle: saline); 95 % of control (dose: 16.0 mg/kg/injection, schedule: Q01DX009 (ip), vehicle: saline); 89 % of control (dose: 32.0 mg/kg/injection, schedule: Q01DX009 (ip), vehicle: saline); 87 % of control (dose: 64.0 mg/kg/injection, schedule: Q01DX009 (ip), vehicle: saline).

As to `COc1cccc2c1C(=N)c1c(O)c3c(c(O)c1C2=O)C[C@@](O)(C(C)=O)C[C@@H]3OC1CC(N)C(O)C(C)O1` (some centres not stated), the T/C is, setting by setting: (dose: 3.46 mg/kg/injection, schedule: Q04DX003 (ip), vehicle: water) 119 % of control; (dose: 5.76 mg/kg/injection, schedule: Q04DX003 (ip), vehicle: water) 119 % of control; (dose: 9.6 mg/kg/injection, schedule: Q04DX003 (ip), vehicle: water) 94 % of control.

Take `C/C=C/C1=CC(=O)C(O)C1O` (configuration not stated): the T/C (dose: 45.0 mg/kg/injection, schedule: Q04DX002 (ip), vehicle: water) was 106 % of control; the T/C (dose: 90.0 mg/kg/injection, schedule: Q04DX002 (ip), vehicle: water) was 99 % of control; the T/C (dose: 180.0 mg/kg/injection, schedule: Q04DX002 (ip), vehicle: water) is 101 % of control.

For the molecule `CC(C)NC(=O)OCc1c(COC(=O)NC(C)C)c(-c2ccc(Cl)c(Cl)c2)n2c1CCC2`, the T/C reads like this: (dose: 2.5 mg/kg/injection, schedule: Q01DX009 (ip), vehicle: distilled water + Tween-80) 173 % of control; (dose: 5.0 mg/kg/injection, schedule: Q01DX009 (ip), vehicle: distilled water + Tween-80) 162 % of control; (dose: 10.0 mg/kg/injection, schedule: Q01DX009 (ip), vehicle: distilled water + Tween-80) 232 % of control; (dose: 20.0 mg/kg/injection, schedule: Q01DX009 (ip), vehicle: distilled water + Tween-80) 289 % of control; (dose: 40.0 mg/kg/injection, schedule: Q01DX009 (ip), vehicle: distilled water + Tween-80) 163 % of control.

For the molecule `O=C1NC(O)CCN1C1OC(CO)C(O)C1O` (configuration not stated), the T/C is 101 % of control (dose: 50.0 mg/kg/injection, schedule: Q04DX003 (ip), vehicle: saline); 101 % of control (dose: 100.0 mg/kg/injection, schedule: Q04DX003 (ip), vehicle: saline); 98 % of control (dose: 200.0 mg/kg/injection, schedule: Q04DX003 (ip), vehicle: saline); 100 % of control (dose: 400.0 mg/kg/injection, schedule: Q04DX003 (ip), vehicle: saline); 108 % of control (dose: 800.0 mg/kg/injection, schedule: Q04DX003 (ip), vehicle: saline).

Consider `O=NN(CCCl)C(=O)NC1CCC(=O)NC1=O` (configuration not stated), for which the T/C is, setting by setting: (dose: 2.8 mg/kg/injection, schedule: Q04DX003 (ip), vehicle: saline with Tween-80) 243 % of control; (dose: 5.1 mg/kg/injection, schedule: Q07DX002 (oral), vehicle: saline with Tween-80) 179 % of control; (dose: 5.1 mg/kg/injection, schedule: Q07DX003 (oral), vehicle: saline with Tween-80) 224 % of control; (dose: 5.1 mg/kg/injection, schedule: Q07DX004 (oral), vehicle: saline with Tween-80) 215 % of control; (dose: 5.2 mg/kg/injection, schedule: Q04DX003 (oral), vehicle: saline with Tween-80) 269 % of control; (dose: 5.6 mg/kg/injection, schedule: Q04DX003 (ip), vehicle: saline with Tween-80) 269 % of control. Further, the T/C is 165 % of control (dose: 7.7 mg/kg/injection, schedule: Q01DX001 (oral), vehicle: saline with Tween-80); 204 % of control (dose: 7.7 mg/kg/injection, schedule: Q07DX002 (oral), vehicle: saline with Tween-80); 250 % of control (dose: 7.7 mg/kg/injection, schedule: Q07DX003 (oral), vehicle: saline with Tween-80); 265 % of control (dose: 7.7 mg/kg/injection, schedule: Q07DX004 (oral), vehicle: saline with Tween-80); 280 % of control (dose: 8.5 mg/kg/injection, schedule: Q04DX003 (oral), vehicle: saline with Tween-80); 269 % of control (dose: 11.25 mg/kg/injection, schedule: Q04DX003 (ip), vehicle: saline with Tween-80). Further, the T/C runs as follows: (dose: 11.5 mg/kg/injection, schedule: Q01DX001 (oral), vehicle: saline with Tween-80) 189 % of control; (dose: 11.5 mg/kg/injection, schedule: Q07DX002 (oral), vehicle: saline with Tween-80) 251 % of control; (dose: 11.5 mg/kg/injection, schedule: Q07DX003 (oral), vehicle: saline with Tween-80) 255 % of control; (dose: 11.5 mg/kg/injection, schedule: Q07DX004 (oral), vehicle: saline with Tween-80) 369 % of control; (dose: 13.6 mg/kg/injection, schedule: Q04DX003 (oral), vehicle: saline with Tween-80) 307 % of control; (dose: 17.4 mg/kg/injection, schedule: Q01DX001 (oral), vehicle: saline with Tween-80) 189 % of control. The T/C was 230 % of control (dose: 17.4 mg/kg/injection, schedule: Q07DX002 (oral), vehicle: saline with Tween-80); 369 % of control (dose: 17.4 mg/kg/injection, schedule: Q07DX003 (oral), vehicle: saline with Tween-80); 261 % of control (dose: 17.4 mg/kg/injection, schedule: Q07DX004 (oral), vehicle: saline with Tween-80); 210 % of control (dose: 26.0 mg/kg/injection, schedule: Q01DX001 (oral), vehicle: saline with Tween-80); 405 % of control (dose: 26.0 mg/kg/injection, schedule: Q07DX002 (oral), vehicle: saline with Tween-80); 184 % of control (dose: 26.0 mg/kg/injection, schedule: Q07DX003 (oral), vehicle: saline with Tween-80). Further, the T/C (dose: 39.0 mg/kg/injection, schedule: Q01DX001 (oral), vehicle: saline with Tween-80) was 278 % of control.

Regarding `CCCCCC(=O)O[C@]1(C(C)=O)CC[C@H]2[C@@H]3CCC4=CC(=O)CC[C@]4(C)[C@H]3CC[C@@]21C`, the T/C is 101 % of control (dose: 25.0 mg/kg/injection, schedule: Q04DX003 (ip), vehicle: Klucel (hydroxypropylcellulose) (HPC)); 106 % of control (dose: 50.0 mg/kg/injection, schedule: Q04DX003 (ip), vehicle: Klucel (hydroxypropylcellulose) (HPC)); 100 % of control (dose: 100.0 mg/kg/injection, schedule: Q04DX003 (ip), vehicle: Klucel (hydroxypropylcellulose) (HPC)); 106 % of control (dose: 200.0 mg/kg/injection, schedule: Q04DX003 (ip), vehicle: Klucel (hydroxypropylcellulose) (HPC)); 103 % of control (dose: 400.0 mg/kg/injection, schedule: Q04DX003 (ip), vehicle: Klucel (hydroxypropylcellulose) (HPC)).

As to `CC1C(=O)CCC2(C)C1CCC1CC3CC12CCC3(O)CO` (configuration not stated), the T/C reads like this: (dose: 25.0 mg/kg/injection, schedule: Q04DX002 (ip), vehicle: saline + alcohol) 100 % of control; (dose: 50.0 mg/kg/injection, schedule: Q04DX002 (ip), vehicle: saline + alcohol) 106 % of control; (dose: 100.0 mg/kg/injection, schedule: Q04DX002 (ip), vehicle: saline + alcohol) 92 % of control.

Regarding `CCOC(=O)CC(SP(=S)(OC)OC)C(=O)OCC` (configuration not stated), the T/C (dose: 25.0 mg/kg/injection, schedule: Q04DX002 (ip), vehicle: saline) is 103 % of control; the T/C (dose: 50.0 mg/kg/injection, schedule: Q04DX002 (ip), vehicle: saline) was 94 % of control; the T/C (dose: 100.0 mg/kg/injection, schedule: Q04DX002 (ip), vehicle: saline) is 104 % of control; the T/C (dose: 200.0 mg/kg/injection, schedule: Q04DX002 (ip), vehicle: saline) is 90 % of control; the T/C (dose: 400.0 mg/kg/injection, schedule: Q04DX002 (ip), vehicle: saline) is 91 % of control.

These data come from PubChem BioAssay AID210 (DTP/NCI, 2004).
